From patent US10800782B2, “Inhibitors of cellular metabolic processes” (Agios Pharmaceuticals, Inc., priority 2016, dated 2020)

Molecular target: T1, MAT2A (Homo sapiens, UniProt P31153)
T1 construct: His6; made in house; host or cells: SF9 insect cells
Experiment: MAT2A biochemical assay (colorimetric inorganic phosphate detection, PiColorLock)
Conditions: recombinant His6-tagged MAT2A 1 μg/ml; 60 minutes preincubation at 25° C.; L-Met 80 μM, ATP 100 μM; 60 minutes reaction; read at 623 nm; read-out: MAT2A Inhibition Score
Method: In the reaction catalyzed by MAT2A enzyme, L-Met and ATP were converted to SAM, inorganic phosphate, and inorganic diphosphate. […] The concentration of malachite green phosphomolybdate produced in the detection reaction is thus directly related to the quantity of product produced by the MAT2A enzyme. Multiple commercial kits exist for this method of phosphate detection and quantification, such as PiColorLock Gold (Innova Biosciences). Typical reaction was performed in 50 μl final volume, containing buffer (Tris, pH 8.0, 50 mM KCl, 15 mM MgCl2, 300 uM EDTA, bovine serum albumin at 0.005% w/v) and 1 μg/ml MAT2A. Compounds were added in 1 μl of DMSO at the desired concentration; a typical dose response curve contained ten points with three-fold dilution between compound concentrations. […] The reaction was allowed to proceed for 60 minutes at room temperature then halted by the addition of 13 μl of PiColor Lock reagent. After a further 5 minutes of incubation at room temperature, […] of PiColor Stabilizer was added and the reactions were further incubated at 25° C. for 25 minutes. […] Recombinant MAT2A protein was expressed in SF9 insect cells and purified by metal chelate affinity chromatography, using methods well known in the art. After expression of His6-tagged MAT2A cells were disrupted by 4 passes through an M-Yl 10 Micro fluidizer (Microfluidics) set to 500 psi, and then centrifuged at 22,000 rcf for 20 min at 4° C. The supernatant was harvested and loaded at 15 cm/h on a Histrap FF 5*1 ml column (GE) which was equilibrated with 50 mM Tris, 500 mM NaCl, pH7.4. Host cell contaminants were removed by washing the column with equilibration buffer followed by equilibration buffer containing 20 mM imidazole and 60 mM imidazole to baseline. MAT2A protein was eluted by the addition of buffer containing 250 mM imidazole, dialized into 50 mM NaCl, 50 mM Tris, pH 7.4, flash frozen in liquid nitrogen, and stored at −80° C. until use.

T1 sequence (P31153 whole entry): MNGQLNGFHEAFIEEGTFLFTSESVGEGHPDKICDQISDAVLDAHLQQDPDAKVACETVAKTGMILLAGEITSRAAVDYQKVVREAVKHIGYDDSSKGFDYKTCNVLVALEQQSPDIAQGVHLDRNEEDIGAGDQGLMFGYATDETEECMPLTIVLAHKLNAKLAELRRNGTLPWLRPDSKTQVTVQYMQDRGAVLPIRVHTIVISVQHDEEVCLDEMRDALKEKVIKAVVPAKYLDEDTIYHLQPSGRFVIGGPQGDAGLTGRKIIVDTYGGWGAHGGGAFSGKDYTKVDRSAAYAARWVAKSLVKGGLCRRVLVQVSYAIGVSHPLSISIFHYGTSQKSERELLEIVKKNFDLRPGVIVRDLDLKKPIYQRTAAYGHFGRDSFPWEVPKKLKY

| Structure (SMILES) | IC50 [nM] |
| --- | --- |
| O=c1c(-c2ccc3ncccc3c2)c(Nc2cc[nH]n2)[nH]c2c(-c3ccccc3)c(-c3ccccc3)nn12 [Compound 187, 5-((1H-pyrazol-3-yl)amino)-2,3-diphenyl-6-(quinolin-6-yl)pyrazolo[1,5-a]pyrimidin-7(4H)-one] | < 100 |
| COc1ccc(-c2c(NC3=NCCS3)[nH]c3c(-c4ccccc4)c(-c4ccccc4)nn3c2=O)cc1 [Compound 143, 5-((4,5-dihydrothiazol-2-yl)amino)-6-(4-methoxyphenyl)-2,3-diphenylpyrazolo[1,5-a]pyrimidin-7(4H)-one] | < 100 |
| O=c1c(-c2ccc3nccnc3c2)c(Nc2ccn[nH]2)[nH]c2c(C3=CCCCC3)c(-c3ccccc3)nn12 [Compound 191, 5-((1H-pyrazol-5-yl)amino)-3-(cyclohex-1-en-1-yl)-2-phenyl-6-(quinoxalin-6-yl)pyrazolo[1,5-a]pyrimidin-7(4H)-one] | < 100 |
| O=c1c(-c2ccc3ncccc3c2)c(CO)[nH]c2c(-c3ccccc3)c(-c3ccccc3)nn12 [Compound 319, 5-(hydroxymethyl)-2,3-diphenyl-6-(quinolin-6-yl)pyrazolo[1,5-a]pyrimidin-7(4H)-one] | 100 to 1000 |
| Cc1[nH]c2c(-c3ccccc3)c(-c3ccccc3)nn2c(=O)c1C1=CCC(=O)CC1 [Compound 336, 5-methyl-6-(4-oxocyclohex-1-en-1-yl)-2,3-diphenylpyrazolo[1,5-a]pyrimidin-7(4H)-one] | 100 to 1000 |
| Cc1[nH]c2c(-c3ccccc3)c(-c3ccc(O)cc3)nn2c(=O)c1-c1ccc2ncccc2c1 [Compound 242, 2-(4-hydroxyphenyl)-5-methyl-3-phenyl-6-(quinolin-6-yl)pyrazolo[1,5-a]pyrimidin-7(4H)-one] | < 100 |
| CC(=O)Nc1ccc(-c2c(C)[nH]c3c(N4CCCCC4)c(-c4ccccc4)nn3c2=O)cc1 [Compound 308, N-(4-(5-methyl-7-oxo-2-phenyl-3-(piperidin-1-yl)-4,7-dihydropyrazolo[1,5-a]pyrimidin-6-yl)phenyl)acetamide] | 1000 to 10000 |
| Cc1[nH]c2c(N3CCC(F)(F)CC3)c(-c3ccccc3)nn2c(=O)c1-c1ccc2ncccc2c1 [Compound 207, 3-(4,4-difluoropiperidin-1-yl)-5-methyl-2-phenyl-6-(quinolin-6-yl)pyrazolo[1,5-a]pyrimidin-7(4H)-one] | < 100 |
| COc1ccc(-c2c(Nc3nnc(C)s3)[nH]c3c(-c4ccccc4)c(-c4ccccc4)nn3c2=O)cc1 [Compound 285, 6-(4-methoxyphenyl)-5-((5-methyl-1,3,4-thiadiazol-2-yl)amino)-2,3-diphenylpyrazolo[1,5-a]pyrimidin-7(4H)-one] | < 100 |
| COc1ccc(-c2c(Nc3ccno3)[nH]c3c(-c4ccccc4)c(-c4ccccc4)nn3c2=O)cc1 [Compound 140, 5-(isoxazol-5-ylamino)-6-(4-methoxyphenyl)-2,3-diphenylpyrazolo[1,5-a]pyrimidin-7(4H)-one] | < 100 |
| Cc1[nH]c2c(-c3ccccc3)c(-c3ccccc3)nn2c(=O)c1C1=CCC(O)CC1 (stereo not shown) [Compound 337, 6-(4-hydroxycyclohex-1-en-1-yl)-5-methyl-2,3-diphenylpyrazolo[1,5-a]pyrimidin-7(4H)-one] | 100 to 1000 |
| COc1ccc(-c2c(Nc3ncc(Cl)cn3)[nH]c3c(-c4ccccc4)c(-c4ccccc4)nn3c2=O)cc1 [Compound 122, 5-((5-chloropyrimidin-2-yl)amino)-6-(4-methoxyphenyl)-2,3-diphenylpyrazolo[1,5-a]pyrimidin-7(4H)-one] | < 100 |
| CCOC(=O)n1ccc(Nc2[nH]c3c(-c4ccccc4)c(-c4ccccc4)nn3c(=O)c2-c2ccc(OC)cc2)n1 [Compound 287, ethyl 3-((6-(4-methoxyphenyl)-7-oxo-2,3-diphenyl-4,7-dihydropyrazolo[1,5-a]pyrimidin-5-yl)amino)-1H-pyrazole-1-carboxylate] | < 100 |
| O=c1c(-c2ccc3ncccc3c2)c(Nc2ccon2)[nH]c2c(C3=CCCCC3)c(-c3ccccc3)nn12 [Compound 176, 3-cyclohexenyl-5-(isoxazol-3-ylamino)-2-phenyl-6-(quinolin-6-yl)pyrazolo[1,5-a]pyrimidin-7(4H)-one] | < 100 |
| Cc1[nH]c2c(-c3ccccc3)c(-c3ccccc3)nn2c(=O)c1-c1ccc2c(c1)OCCO2 [Compound 211, 6-(2,3-dihydrobenzo[b][1,4]dioxin-6-yl)-5-methyl-2,3-diphenylpyrazolo[1,5-a]pyrimidin-7(4H)-one] | < 100 |
| Cc1[nH]c2c(N3CCCCC3)c(-c3ccccc3)nn2c(=O)c1C1CCCC1 [Compound 300, 6-cyclopentyl-5-methyl-2-phenyl-3-(piperidin-1-yl)pyrazolo[1,5-a]pyrimidin-7(4H)-one] | 100 to 1000 |
| Cc1[nH]c2c(N3CCCCC3)c(-c3ccccc3)nn2c(=O)c1-c1cscn1 [Compound 310, 5-methyl-2-phenyl-3-(piperidin-1-yl)-6-(thiazol-4-yl)pyrazolo[1,5-a]pyrimidin-7(4H)-one] | 1000 to 10000 |
| CCC(=O)Nc1[nH]c2c(-c3ccccc3)c(-c3ccccc3)nn2c(=O)c1-c1ccc2ncccc2c1 [Compound 327, N-(7-oxo-2,3-diphenyl-6-(quinolin-6-yl)-4,7-dihydropyrazolo[1,5-a]pyrimidin-5-yl)propionamide] | 100 to 1000 |
| Cc1[nH]c2c(-c3ccccc3)c(-c3ccnc(Cl)c3)nn2c(=O)c1-c1ccc2ncccc2c1 [Compound 350, 2-(2-chloropyridin-4-yl)-5-methyl-3-phenyl-6-(quinolin-6-yl)pyrazolo[1,5-a]pyrimidin-7(4H)-one] | 1000 to 10000 |
| COc1ccc(-c2c(Nc3cc(OC)[nH]n3)[nH]c3c(-c4ccccc4)c(-c4ccccc4)nn3c2=O)cc1 [Compound 183, 5-((5-methoxy-1H-pyrazol-3-yl)amino)-6-(4-methoxyphenyl)-2,3-diphenylpyrazolo[1,5-a]pyrimidin-7(4H)-one] | < 100 |
| COc1ccc(-c2c(Nc3cnccn3)[nH]c3c(-c4ccccc4)c(-c4ccccc4)nn3c2=O)cc1 [Compound 126, 6-(4-methoxyphenyl)-2,3-diphenyl-5-(pyrazin-2-ylamino)pyrazolo[1,5-a]pyrimidin-7(4H)-one] | < 100 |
| Cc1[nH]c2c(C3=CCC(F)(F)CC3)c(-c3ccccc3)nn2c(=O)c1-c1ccc2ncccc2c1 [Compound 265, 3-(4,4-difluorocyclohex-1-en-1-yl)-5-methyl-2-phenyl-6-(quinolin-6-yl)pyrazolo[1,5-a]pyrimidin-7(4H)-one] | < 100 |
| Cc1[nH]c2c(-c3ccccc3)c(-c3ccccc3)nn2c(=O)c1-c1ccc2nc(C(=O)O)ccc2c1 [Compound 246, 6-(5-methyl-7-oxo-2,3-diphenyl-4,7-dihydropyrazolo[1,5-a]pyrimidin-6-yl) quinoline-2-carboxylic Acid] | < 100 |
| COc1ccc(-c2c(Nc3ccc(N)nn3)[nH]c3c(-c4ccccc4)c(-c4ccccc4)nn3c2=O)cc1 [Compound 123, 5-((6-aminopyridazin-3-yl)amino)-6-(4-methoxyphenyl)-2,3-diphenylpyrazolo[1,5-a]pyrimidin-7(4H)-one] | < 100 |
| Cc1nc2ccc(-c3c(C)[nH]c4c(-c5ccccc5)c(-c5ccccc5)nn4c3=O)cc2cc1O [Compound 247, 6-(3-hydroxy-2-methylquinolin-6-yl)-5-methyl-2,3-diphenylpyrazolo[1,5-a]pyrimidin-7(4H)-one] | < 100 |
